According to patent US9776967B2, “Carboxamide derivatives as pesticidal compounds” (priority 2013, dated 2017):
Like-named read-outs stand apart in the source and are kept apart here.

Experiments:
[1] = LogP by HPLC on reversed phase columns (EEC directive 79/831 Annex V.A8); type: physicochemical
Description: Calibration was done with straight-chain alkan2-ones (with 3 to 16 carbon atoms) with known Log P values (measurement of Log P values using retention times with linear interpolation between successive alkanones). Lambda-max-values were determined using UV-spectra from 200 nm to 400 nm and the peak values of the chromatographic signals.

[2] = test system: Nippostrongylus brasiliensis; experiment: In vitro assay with Nippostrongylus brasiliensis (NIPOBR), acetylcholine esterase readout; conditions: adult worms, read-out: activity (reduction of AChE compared to negative control); for inhibition at 1 ppm: 1 ppm (1 μg/ml); for inhibition at 10 ppm: 10 ppm (10 μg/ml)
Description: In Vitro Assay with Nippostrongylus brasiliensis (NIPOBR)
Adult Nippostrongylus brasiliensis were washed with saline buffer containing 100 U/ml penicillin, 0.1 mg/ml streptomycin and 2.5 μg/ml amphotericin B. Test compounds were dissolved in DMSO and worms were incubated in medium in a final concentration of 10 μg/ml (10 ppm) respectively 1 μg/ml (1 ppm). An aliquot of the medium was used to determine the acetylcholine esterase activity in comparison to a negative control. The principle of measuring acetylcholine esterase as readout for anthelmintic activity was described in Rapson et al (1986) and Rapson et al (1987).

Cooperia curticei = experiment: In vitro assay with Cooperia curticei (COOPCU), larval mortality; conditions: 120 h, read-out: activity (larval mortality)
Description: In Vitro Assay with Cooperia curticei (COOPCU)
(§1) Solvent: Dimethyl Sulfoxide
(§2) To produce a suitable preparation of active compound, 10 mg of active compound are dissolved in 0.5 ml solvent, and the concentrate is diluted with “Ringer's solution” to the desired concentration.
Approximately 40 nematode larvae (Cooperia curticei) are transferred into a test tube containing the compound solution.
After 5 days percentage of larval mortality is recorded. 100% efficacy means all larvae are killed; 0% efficacy means no larvae are killed.

Haemonchus contortus = experiment: In vitro assay with Haemonchus contortus (HAEMCO), larval mortality; conditions: 120 h; for mortality at 20 ppm: read-out: activity (larval mortality); for Emax at 0.8 ppm / Emax at 4 ppm / Emax at 20 ppm: HAEMCO, 5dat, comparative example, read-out: % Efficacy
Description: In Vitro Assay with Haemonchus contortus (HAEMCO)
as §1, §2
Approximately 40 larvae of the red stomach worm (Haemonchus contortus) are transferred into a test tube containing compound solution.
After 5 days percentage of larval mortality are recorded. 100% efficacy means all larvae are killed, 0% efficacy means no larvae are killed.

Meloidogyne incognita = Meloidogyne incognita (MELGIN) assay, gall formation on salad seedlings; type: in vivo; conditions: 336 h, after 14 days, read-out: nematicidal activity (percentage of gall formation; 100% = no galls)
Description: Meloidogyne incognita (MELGIN) Assay
Solvent: 125.0 parts by weight of acetone
To produce a suitable preparation of active compound, 1 part by weight of active compound is mixed with the stated amount of solvent, and the concentrate is diluted with water to the desired concentration.
Vessels are filled with sand, a solution of the active ingredient, a suspension containing eggs and larvae of the southern root-knot nematode (Meloidogyne incognita) and salad seeds. The salad seeds germinate and the seedlings grow. Galls develop in the roots.
After 14 days the nematicidal activity is determined on the basis of the percentage of gall formation. 100% means no galls were found and 0% means the number of galls found on the roots of the treated plants was equal to that in untreated control plants.

[3] = LC-UV, acidic range, 0.1% formic acid in water and acetonitrile, read-out: logP (HCOOH) [a]
[4] = reversed-phase HPLC column, LC-UV, acidic range, 0.1% formic acid in water and acetonitrile, read-out: logP (HCOOH) [a]

Compound | chromatographic logP [1, 3] | chromatographic logP ([1]; logP (HCOOH) [a]) | inhibition at 1 ppm [2] [%] | mortality at 20 ppm (Cooperia curticei) [%] | mortality at 20 ppm (Haemonchus contortus) [%] | pest or weed control at 20 ppm (Meloidogyne incognita) [%] | also measured
Cc1ccc(-c2cnc(C(C)(F)CNC(=O)c3cccnc3C(F)(F)F)c(Cl)c2)cc1 (stereo not shown) [Example 22] | 2.15 | – | – | – | – | – | –
Cc1ccc(-c2cnc(C(C)(F)CNC(=O)c3ccccc3C(F)(F)F)c(Cl)c2)cc1 (stereo not shown) [Example 29] | 4.35 | – | – | – | – | – | –
O=C(NCC(F)(F)c1ncc(-c2cc(Cl)cc(Cl)c2)cc1Cl)c1ccccc1C(F)(F)F [Example 11] | – | 4.64 | ≥ 60 | 100 | 100 | 90 | inhibition at 10 ppm [2]: ≥ 60%
O=C(NCC(F)(F)c1ncc(-c2cccc(C(F)(F)F)c2)cc1Cl)c1ccccc1C(F)(F)F [Example 10] | – | 4.17 | ≥ 60 | 100 | 100 | – | –
O=C(NCC(F)(F)c1ncc(-c2ccc(F)cc2)cc1Cl)c1nccnc1C(F)(F)F [Example 19] | 3.51 | – | – | 100 | – | 90 | mortality at 20 ppm (Haemonchus contortus; 20 ppm, after 5 days): 100%
CC(F)(CNC(=O)c1ccccc1C(F)(F)F)c1ncc(-c2ccc(F)cc2)cc1Cl (stereo not shown) [Example 21, N-{2-[3-chloro-5-(4-fluorophenyl)pyridin-2-yl]-2-fluoropropyl}-2-(trifluoromethyl) benzamide] | 3.96 | – | – | – | – | 100 | –
O=C(NCC(F)(F)c1ncc(-c2ccc(F)c(C(F)(F)F)c2)cc1Cl)c1ccccc1C(F)(F)F [Example 34] | 4.19 | – | – | – | – | – | –
CC(=O)Nc1ccc(-c2cnc(C(F)(F)CNC(=O)c3ccccc3C(F)(F)F)c(Cl)c2)cc1 [Example 38] | 2.7 | – | – | – | – | – | –
O=C(NCC(F)(F)c1ncc(-c2ccccc2F)cc1Cl)c1ccccc1C(F)(F)F [Example 13] | – | 3.73 | ≥ 60 | 100 | 100 | – | –
O=C(NCC(F)(F)c1ncc(-c2ccc3c(c2)OC(F)(F)O3)cc1Cl)c1ccccc1C(F)(F)F [Example 25] | 4.18 | – | – | – | – | – | –
O=C(NCC(F)(F)c1ncc(-c2ccc(Cl)cc2Cl)cc1Cl)c1ccccc1C(F)(F)F [Example 15] | – | 4.57 | ≥ 60 | 100 | 100 | 90 | inhibition at 10 ppm [2]: ≥ 60%
O=C(NCC(F)(F)c1ncc(-c2ccc(F)cc2)cc1Cl)c1cccnc1C(F)(F)F [Example 26] | 3.29 | – | – | – | – | 100 | –
CNc1ccc(-c2cnc(C(F)(F)CNC(=O)c3ccccc3C(F)(F)F)c(Cl)c2)cc1 [Example 36] | 3.39 | – | – | – | – | – | –
CSc1ccc(-c2cnc(C(F)(F)CNC(=O)c3ccccc3C(F)(F)F)c(Cl)c2)cc1 [Example 35] | 4.1 | – | – | – | – | – | –
O=C(NCC(F)(F)c1ncc(-c2ccc(Cl)cc2)cc1Cl)c1ccccc1C(F)(F)F [Example 2, N-{2-[3-chloro-5-(4-chlorophenyl)pyridin-2-yl]-2,2-difluoroethyl}-2-(trifluoromethyl)-benzamide] | 4.17 | – | ≥ 60 | 100 | – | – | mortality at 20 ppm (Haemonchus contortus; 20 ppm, after 5 days): 100%
O=C(NCC(F)(F)c1ncc(-c2ccccc2)cc1Cl)c1ccccc1C(F)(F)F [Example 5] | – | 3.75 | ≥ 60 | 100 | 100 | 90 | inhibition at 10 ppm [2]: ≥ 60%
O=C(NCC(F)(F)c1ncc(-c2ccc(F)c(F)c2)cc1Cl)c1ccccc1C(F)(F)F [Example 14] | – | 3.84 | ≥ 60 | 100 | 100 | 100 | inhibition at 10 ppm [2]: ≥ 60%
O=C(NCC(F)(F)c1ncc(-c2ccccc2Cl)cc1Cl)c1ccccc1C(F)(F)F [Example 16] | – | 4 | ≥ 60 | 100 | 100 | – | inhibition at 10 ppm [2]: ≥ 60%

Compound | chromatographic logP [1, 3] | chromatographic logP ([1]; logP (HCOOH) [a]) | inhibition at 1 ppm [2] [%] | mortality at 20 ppm (Cooperia curticei) [%] | mortality at 20 ppm (Haemonchus contortus) [%] | pest or weed control at 20 ppm (Meloidogyne incognita) [%] | also measured
O=C(NCC(F)(F)c1ncc(-c2ccc(F)cc2)cc1Cl)c1ccccc1C(F)(F)F [Example 24] | – | 3.74 | ≥ 60 | 100 | 100 | 100 | inhibition at 10 ppm [2]: ≥ 60%; Emax at 0.8 ppm (Haemonchus contortus): 100%; Emax at 4 ppm (Haemonchus contortus): 100%; Emax at 20 ppm (Haemonchus contortus; 20 ppm): 100%
CN(C)c1ccc(-c2cnc(C(F)(F)CNC(=O)c3ccccc3C(F)(F)F)c(Cl)c2)cc1 [Example 17] | 4.09 | – | – | 100 | – | – | mortality at 20 ppm (Haemonchus contortus; 20 ppm, after 5 days): 100%
O=C(NCC(F)(F)c1ncc(-c2ccc3c(c2)OCO3)cc1Cl)c1ccccc1C(F)(F)F [Example 8] | – | 3.53 | ≥ 60 | 100 | 100 | 100 | inhibition at 10 ppm [2]: ≥ 60%
O=C(NCC(F)(F)c1ncc(-c2ccc(SC(F)(F)F)cc2)cc1Cl)c1ccccc1C(F)(F)F [Example 39] | 4.65 | – | – | – | – | – | –
CC(F)(CNC(=O)c1ccccc1C(F)(F)F)c1ncc(-c2ccccc2)cc1Cl (stereo not shown) [Example 23] | 3.92 | – | – | – | – | – | –
Cc1ccccc1-c1cnc(C(F)(F)CNC(=O)c2ccccc2C(F)(F)F)c(Cl)c1 [Example 9] | 4 | – | – | 100 | – | 100 | mortality at 20 ppm (Haemonchus contortus; 20 ppm, after 5 days): 100%
N#Cc1ccc(-c2cnc(C(F)(F)CNC(=O)c3ccccc3C(F)(F)F)c(Cl)c2)cc1 [Example 37] | – | – | – | – | – | – | chromatographic logP [1, 4]: 3.29
O=C(NCC(F)(F)c1ncc(-c2ccc(N3CCCC3)cc2)cc1Cl)c1ccccc1C(F)(F)F [Example 30] | 4.83 | – | – | 100 | – | – | mortality at 20 ppm (Haemonchus contortus; 20 ppm, after 5 days): 90%
CC(F)(CNC(=O)c1cccnc1C(F)(F)F)c1ncc(-c2ccccc2)cc1Cl (stereo not shown) [Example 28] | 3.38 | – | – | – | – | – | –
O=C(NCC(F)(F)c1ncc(-c2cc(F)cc(F)c2)cc1Cl)c1ccccc1C(F)(F)F [Example 12] | – | 3.89 | ≥ 60 | 100 | 100 | – | inhibition at 10 ppm [2]: ≥ 60%
O=C(NCC(F)(F)c1ncc(-c2cccc(Cl)c2)cc1Cl)c1ccccc1C(F)(F)F [Example 3] | – | 4.17 | ≥ 60 | 100 | 100 | – | inhibition at 10 ppm [2]: ≥ 60%
O=C(NCC(F)(F)c1ncc(-c2ccc(N3CCOCC3)cc2)cc1Cl)c1ccccc1C(F)(F)F [Example 32] | 3.59 | – | – | 100 | – | – | –
CS(=O)(=O)c1ccc(-c2cnc(C(F)(F)CNC(=O)c3ccccc3C(F)(F)F)c(Cl)c2)cc1 [Example 33] | 2.65 | – | – | – | – | – | –
O=C(NCCc1ccc(-c2ccc(OC(F)(F)F)cc2)cc1)c1ccccc1C(F)(F)F [Ex.-No. 1-49, reference compound] | – | – | – | – | – | – | Emax at 0.8 ppm (Haemonchus contortus): 60%; Emax at 4 ppm (Haemonchus contortus): 60%; Emax at 20 ppm (Haemonchus contortus; 20 ppm): 80%
NCC(F)(F)c1ncc(-c2ccc(F)cc2)cc1Cl [INT-1, 2-[3-chloro-5-(4-fluorophenyl)-2-pyridyl]-2,2-difluoro-ethanamine] | – | – | – | – | – | – | chromatographic logP [1, 4]: 1.18; chromatographic logP ([1]; reversed-phase HPLC column, LC-UV, neutral range, 0.001 molar ammonium acetate solution in water and acetonitrile, read-out: logP [b]): 2.61
CC(F)(CNC(=O)c1cccnc1C(F)(F)F)c1ncc(-c2ccc(Cl)cc2)cc1Cl (stereo not shown) [Example 20] | 3.83 | – | – | – | – | – | –
COc1ccc(-c2cnc(C(F)(F)CNC(=O)c3ccccc3C(F)(F)F)c(Cl)c2)cc1Cl [Example 6] | 3.94 | – | – | 100 | – | 90 | mortality at 20 ppm (Haemonchus contortus; 20 ppm, after 5 days): 100%
CN1CCN(c2ccc(-c3cnc(C(F)(F)CNC(=O)c4ccccc4C(F)(F)F)c(Cl)c3)cc2)CC1 [Example 31] | 1.78 | – | – | 100 | – | – | chromatographic logP ([1]; LC-UV, neutral range, 0.001 molar ammonium acetate solution in water and acetonitrile, read-out: logP [b]): 3.39; mortality at 20 ppm (Haemonchus contortus; 20 ppm, after 5 days): 100%
